Literature values, collected in patent publication US9907752B2, “Bendamustine solid dispersions and continuous infusion” (priority 2014, dated 2018).
Converted amounts (≈) assume the structure as drawn.

How the values were obtained:
[1] = aqueous solution

| solubility in DMSO (DMSO) [mg/mL] | solubility in water (water) [mg/mL] | SMILES | hydrolysis reaction half times [1] |
| --- | --- | --- | --- |
| ~36 (≈ 198 mM) | ~36 (≈ 198 mM) | OC[C@@H](O)[C@@H](O)[C@H](O)[C@H](O)CO [mannitol] | – |
| – | – | Cn1c(CCCC(=O)O)nc2cc(N(CCCl)CCCl)ccc21 [bendamustine, 4-{5-[Bis(2-chloroethyl)amino]-1-methyl-2-benzimidazolyl}butyric acid] | measured in hours rather than seconds |
